These results are taken from PubChem BioAssay (NCI).

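These data come from cells grown in 96-well plates and exposed to compound for 48 hours at five concentrations. The concentration for 50% growth inhibition is given as GI50. TGI: concentration producing complete growth inhibition.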

Holding throughout (experiment): growth of human tumour cells (NCI), 48 h
In experiment [1] the test system is CAKI-1 renal.
Experiment [2] deals with EKVX NSCLC.
In experiment [3] the test system is HCC-2998 colon.
For experiment [4], the system named is HL-60(TB) leukemia.
The subject of experiment [5] is K-562 leukemia.
Experiment [6] has as its system LOX IMVI melanoma.
In experiment [7] the test system is SF-295 CNS.
The test system of experiment [8] is SK-MEL-5 melanoma.
The test system of experiment [9] is SK-OV-3 ovarian.
In experiment [10] the test system is NCI-H522 lung.

As for `CCN(CCNc1ccc(C)c2sc3cc(Cl)ccc3c(=O)c12)CC(C)O` (configuration not stated), the GI50 in experiment [1] is 0.643 µM; in [2] it was 2.28 µM; in experiment [3], 2.18 µM; in experiment [4], 1.7 µM; in [5], 1.82 µM; in experiment [6], 1.85 µM. The GI50 in [7] is 1.67 µM; in experiment [8], 1.62 µM; in experiment [9] it was 1.76 µM. Moreover, the TGI in [1] came to 2.49 µM; in [2], 7.3 µM; in experiment [3], 3.62 µM; in [4], 3.35 µM; in experiment [5] it was 3.41 µM; in experiment [6], 3.72 µM. Besides, the figures for the TGI in [7], in experiment [8] and in experiment [9] were 3.72 µM, 2.98 µM and 3.44 µM, respectively.

Take `CCN1CCN(CC(=O)Nc2nc3ccc(NCc4ccc(Cl)cc4)cc3s2)CC1`: the GI50 in [1] was 2.1 µM; in [2], 3.29 µM; in experiment [4], 1.95 µM; in [5], 1.63 µM; in experiment [6], 1.68 µM; in experiment [10], 2.2 µM. In addition, the GI50 in experiment [8] is 1.67 µM; in experiment [9], 2.95 µM. Further, the TGI is 5.19 µM in [1]; over 100 µM in [2]; 3.87 µM in experiment [4]; 4.14 µM in experiment [5]; 3.17 µM in [6]; 5.19 µM in experiment [10]. In addition, the TGI in experiment [8] came out at 3.07 µM; in experiment [9], 7.98 µM.

For `CC(=O)Nc1ccc(/C=N\N2C(=O)c3ccccc3C2=O)cc1`, the TGI in [1], in experiment [2], in experiment [3], in experiment [4], in [5] and in experiment [6] was over 100 µM throughout. Further, the TGI in experiment [7] and in experiment [8] was over 100 µM throughout.

For `Nc1c(Br)c(=O)[nH]c(=O)n1COCCO`, the TGI in experiment [1], in [3], in [4], in experiment [5], in experiment [6] and in [10] was over 100 µM in each case. The TGI in experiment [7] and in [8] was over 100 µM each time.

As for `NC(=O)c1oc([N+](=O)[O-])c(-c2ccccc2)c1-c1ccccc1`, the TGI in [1] amounted to 48.1 µM; in experiment [2], 48.4 µM; in [4], 70 µM; in experiment [5], 59.6 µM; in [6], 29.1 µM; in experiment [10], 31.5 µM. Further, the results for the TGI in experiment [7], in experiment [8] and in experiment [9] were 35.3 µM, 14.2 µM and over 100 µM, respectively.

On to `CS(=O)(=O)OCCn1cnc2nc(NC(=O)c3ccccc3)[nH]c(=O)c21`, for which the TGI in experiment [1], in experiment [2], in experiment [4], in experiment [5], in experiment [6] and in [10] was over 100 µM each time. Besides, the TGI in [7], in experiment [8] and in experiment [9] was over 100 µM each time.

On to `CC(C)(O)C1CCC(Nc2ccc3ncc(-c4cccc(C(F)(F)F)c4)n3n2)CC1` (configuration not stated), for which the GI50 was 1.67 µM in experiment [1]; 3.82 µM in experiment [2]; 3.26 µM in experiment [3]; 2.27 µM in experiment [5]; 1.56 µM in experiment [6]; 1.73 µM in experiment [10]. The GI50 in [7] is 1.66 µM; in [9], 2.68 µM. Further, the TGI is 7.16 µM in experiment [1]; over 100 µM in [2]; over 100 µM in [3]; 11.9 µM in experiment [5]; 4.23 µM in experiment [6]; 5.92 µM in [10]. For the same compound, the TGI in experiment [7] turned out to be 4.67 µM; in experiment [9], 9.19 µM.

For the compound `C=CCN(N=O)C(=O)N(CCCC(NC(C)=O)C(=O)NCc1ccccc1)Cc1ccccc1` (configuration not stated), the TGI was 83.9 µM in experiment [1]; over 100 µM in experiment [2]; 52.9 µM in [4]; over 100 µM in experiment [5]; over 100 µM in [6]; 84.8 µM in [10]. Besides, the TGI was over 100 µM in [7], 93.8 µM in experiment [8] and over 100 µM in experiment [9].

In the case of `c1cc(CCN2CCCCC2)ccn1`, the TGI in experiment [1], in experiment [2], in experiment [5], in [6], in experiment [10] and in experiment [7] was over 100 µM in each case. Also, the TGI in [8] and in experiment [9] was over 100 µM each time.

Turning to `C[C@]12CC[C@@H]3c4ccc(O)cc4CC[C@H]3[C@@H]1CC[C@@H]2NS(=O)(=O)c1cccc(C(F)(F)F)c1`, the GI50 in [1] is 3.23 µM; in experiment [3], 4.58 µM; in experiment [4], 3.54 µM; in [5] it was 3.63 µM; in [7], 1.86 µM; in experiment [8] it was 1.79 µM. In addition, the GI50 in [9] is 4.78 µM. Also, the TGI was 11.8 µM in [1]; 17.9 µM in experiment [3]; 15.5 µM in experiment [4]; 15.3 µM in [5]; 3.63 µM in experiment [7]; 3.29 µM in experiment [8]. In experiment [9], this compound returned a TGI of 15.3 µM.

With `COc1ccc(C(Cc2cc(OC)c(OC)c(OC)c2)C(=O)O)cc1` (configuration not stated), the TGI in experiment [1] was over 100 µM; in experiment [2] it was over 100 µM; in [3] it was over 100 µM; in [5] it was over 100 µM; in experiment [6] it was over 100 µM; in [7] it was 84.8 µM. Further, the TGI in experiment [8] and in experiment [9] was over 100 µM in each case.

With `COc1ccc(-c2cc(-c3ccccc3)nc(N3CCN(CCNc4ccnc5cc(Cl)ccc45)CC3)n2)cc1`, the GI50 in experiment [1] is 2.97 µM; in experiment [2], 19 µM; in experiment [3], 1.46 µM; in [6], 1.76 µM; in [7] it was 16.6 µM; in experiment [8], 1.62 µM. In experiment [9], the GI50 is 10.3 µM. The TGI in [1] was 12.1 µM; in experiment [2] it was 48.3 µM; in experiment [3] it was 3.02 µM; in experiment [6] it was 3.24 µM; in experiment [7], 33 µM; in experiment [8] it was 3 µM. The TGI in [9] was found to be 22 µM.
